Experimental data: patent US6649628B1, “N-[2-hydroxy-3-(1-piperidinyl)propoxy]pyridine-1-oxide-3-carboximidoyl chloride and its use in the treatment of insulin resistance” (Biorex Kutato es Fejleszto RT, priority 1999, dated 2003)

Columns and labels:
STZ-diabetic Wistar rats [1] = assay: Experiment 3: diabetic autonomous neuropathy after 1 month of treatment; assay type: in vivo, rat; conditions: daily 20 mg/kg single dose
Method: The experiments were performed under anesthesia achieved by administering 60 mg/kg ip. pentobarbital sodium (Nembutal, Sanofi, Phylaxia). After this, an intratracheal tube or polyethylene canula was inserted into the fermoral artery and vein. The arterial catheter was connected to a pressure transducer for the simultaneous measurement of systolic and diastolic blood pressure (online automatic measuring and forwarding system, with a Haemosys computer program). After 20 minutes of equillibration period, the following substances were administered intravenously: Noradrenalin, 5 μg/kg iv.—Isoproterenol 0.4 μg/kg iv.—N.vagus stimulation (2 V, duration: 500 μsec, delay: 1 msec). The effects of the substances were monitored for 10 minutes.

STZ-diabetic Wistar rats [2] = assay: Experiment 6: Compound-A and enantiomers, nerve conduction velocity after 1 month treatment
Method: In the experiments, male Wistar rats were used (Charles River Laboratories Inc.). At the start of the experiment, their weights were 340-370 g. Diabetes was induced by the intravenous administration of a single 45 mg/kg dose of streptozotocine (STZ, Sigma, St. Louis, Mo.) dissolved in physiological saline solution. The development of diabetes was checked after 1 day by a blood glucose test, accepting a value over 15 mmol/l.
The test and reference substances were administered p.os to the animals once a day.
For the determination of nerve conduction velocity (NCV), the method of Stanley, modified by De Konig and Gispen was used. The animals were anesthetized by the simultaneous administration of Hyponorm (1 mg/kg ip., Janssen, Tilburg, Denmark), fluanisone (10 mg/ml), and phentanyl citrate (0.2 mg/ml). Afterwards, the left ischiadicus and tibial nerves were stimulated at standard points. Supramaximal stimulus (square impulse, 0.03 ms) was used with a platinum needle electrode, through a Nihon-Kohden (model SEN-1104, Japan) stimulator. The electromyogram (EMG) transferred from the sole muscles and intensified by a myograph (Elema-Schonander, Stockholm, Sweden) was analyzed further by the Matlab for Windows (Mathwork Inc, UK) program. The extent of NCV damage caused by diabetes was expressed in m/s. The effectiveness of the treatment was compared to this in terms of percentage (%). The statistical calculations were done by unpaired t-test or single-criterion ANOVA test (along with the Newman-Keuls post hoc test).

STZ-diabetic rats = conditions: 2 month
Method: After anesthesia (Calypsovet, 125 mg/kg. Ip., Richter Rt., Hungary), the eyes were enucleated and fixed in 4% formaldehyde dissolved in a phosphate buffer (pH:7.4).
Afterwards, they were embedded in paraffin (Medim DDM P800, embedding center: Lignifer L-120-92-014, stainer: Shandon Eliott, Microtome: is Leica SM 2000 R, Microscope: Jenaval Karl Zeiss Jena). Several 6 micron sections of the eyes were prepared, and hematoxilyn/eosine (Fluka) and PAS (periodic acid-Schiff, Fluka) staining were used. The light-microscopic evaluation was performed at a magnification of 40× and 100×. Photographs and slide positives were prepared of representative samples.
The histological evaluation was performed on coded samples, the group division was unknown for the examiner. Pathological deviations of the retina were graded on a scale of 0-20, while those of the lens on a scale of 0-3.
The statistical calculations were done with the Statistica 4.5 (SatSoft, USA) program. The given value for negative cases was 0.1. A Box and Whisker plot graph was also prepared.
For each group in the experiment, the mean±SE (Standard Error) values were calculated, and the comparison was done with the help of a non-parametric Mann-Whitney U-test (Graphpad Instat, San Diego, Calif.).

STZ-diabetic Wistar rats [3] = assay: Experiment 5: urinary protein loss caused by diabetic nephropathy after 1-month treatment; assay type: in vivo, rat
Method: For the 24-hour period of urine collection, the animals were placed in individual metabolic cages. During this period they were given water ad libitum but no food. The latter measure was necessary to prevent possible contamination by the protein content of the food. Urine was collected in calibrated glass containers, in which Thymol crystal (Reanal 3135-1-08-38) was placed to prevent bacterial contamination.
Before measurement, the urine samples were centrifuged (2500 rpm) and filtered through a paper filter (Whatmann 1). If necessary, they were stored at −20° C. until measurement.
The total protein content of the urine was determined by the Bradford staining method (Sigma B-6916, St. Louis, Mo.), and color intensity was detected by spectrophotometry (Hitachi-U-3200).

STZ-diabetic Wistar rats [4] = assay: Experiment 2: peripheral neuropathy, nerve conduction velocity after 1-month treatment; assay type: in vivo, rat; conditions: for MNCV / MNCV improvement / SNCV / SNCV improvement: 1 month
Text: (Graphpad Instat, San Diego, Calif.).

STZ-diabetic Wistar rats [5] = tested on: STZ-diabetic Wistar rats
Text: The experiments were accomplished on Wistar rats with a body weight of 320-350 g. Diabetes was induced and checked as described in Experiment 2. In the test animals having been diabetic for 3 weeks the left nervus ischidiacus was injured by freezing and the right side one was used as non-injured control. The regeneration was observed by monitoring the signals of the flexor reflex provoked by irritation of the sole that is areas under curve (AUC) of the electromyogram transferred from the forward tibial muscle. For the stimulation and detection the system described in Experiment 2 was used. Single daily doses of 10 mg/kg of Compound-A and 5 mg/kg of A(+) enantiomer were administred for 5 weeks after the injury by freezing.

STZ-diabetic Wistar rats [6] = assay: Experiment 4: histological alterations of early diabetic retinopathy after 1 month of treatment; assay type: in vivo, rat
Method: Photographs and slide positives were prepared of representative samples.
The given value for negative cases was 0.1. A Box and Whisker plot graph was also prepared.

[7] = tested on: obese, insulin resistant, hyperinsulinaemic Zucker fa/fa rats; assay: Experiment 1: carbohydrate metabolism (fasting glucose/insulin, ip glucose tolerance test) after 2-month treatment; assay type: in vivo, rat
Method: In the experiments so-called Zucker fa/fa rats (Charles River Laboratories Inc.) were used. In […] animals, obesity, insulin resistance, high blood insulin level, impaired glucose tolerance and hypertriglyceridaemia result from hypothalamic leptin receptor mutation. Due to the above characteristics, this is an accepted model of early type 2 diabetes.
The animals were placed in individual metabolic cages for 24 hours at the beginning of the study, and after 1 or 2 months of treatment for 24 hours of urine collection.
The animals were given either the test substances or physiological saline solution by gavage for control once a day between weeks 14-22.
Biochemical parameters of the blood and the urine were measured by a Kodak Ectachem 700 automatic analyzer. The total protein level of the urine was determined spectrophotometrically with the use of Bradford staining (Hitachi U-3200) at 595 nm. The insulin concentration of the serum was determined by the RIA method, using rat anti-insulin antibodies.
Systolic, diastolic blood pressure and heart rate were measured weekly on the tails of the rats (so-called tail cuff method) by a Letica 200 automatic analyzer. After two months of treatment, the level of glucose tolerance was determined by the intraperitoneal glucose tolerance test (2 g/kg ip.).

[8] = Compound-A 10 mg/kg, enantiomers 5 mg/kg daily
[9] = 20 mg/kg p.os daily, 2-month treatment
[10] = intraperitoneal glucose tolerance test
[11] = ip glucose tolerance test 2 g/kg, AUC 0-60 minutes, 20 mg/kg p.os daily, 2-month treatment

Compound: O=C(O)/C=C\C(=O)O.[O-][n+]1cccc(C(Cl)=NOCC(O)CN2CCCCC2)c1 (centres unmarked) [Compound A, N-[2-hydroxy-3-(1-piperidinyl)-propoxy]-pyridine-1-oxide-3-carboximidoyl chloride (Z)-2-butenedioate (1:1)]
- effect on pathological deviations resulting from autonomous neuropathy (STZ-diabetic Wistar rats [1]): significantly reduced
- Heart left ventricular hypertrophy (deviation due to diabetes) (STZ-diabetic Wistar rats [1]; 1 month): ↑ (corrects)
- Increased negative chronotropic effect on vagus stimulation (STZ-diabetic Wistar rats [1]; 1 month): ↑ (corrects)
- Reduced hypotension on vagus stimulation (STZ-diabetic Wistar rats [1]; 1 month): ↑ (corrects)
- Reduced IS induced systemic arterial hypotension (STZ-diabetic Wistar rats [1]; 1 month, isoproterenol 0.4 μg/kg iv.): — (ineffective)
- MNCV (STZ-diabetic Wistar rats [2]; 10 mg/kg daily, 1 month): 59.3 ± 0.3 m/s
- MNCV improvement (STZ-diabetic Wistar rats [2]; 10 mg/kg daily, 1 month): 78.9%
- SNCV improvement (STZ-diabetic Wistar rats [2]; 10 mg/kg daily, 1 month): 79.2%
- effect on motor (MNCV) and sensory (SNCV) nerve conduction velocity deficits (STZ-diabetic Wistar rats [2]; [8]): significantly improved
- Scores lenticular + retinal improvement % (STZ-diabetic rats; 10 mg/kg daily): 34.7%
- Scores lenticular + retinal mean ± SE (STZ-diabetic rats; 10 mg/kg daily): 4.55 ± 0.69
- Scores retinal improvement % (STZ-diabetic rats; 10 mg/kg daily): 65.8%
- Scores retinal mean ± SE (STZ-diabetic rats; 10 mg/kg daily): 1.80 ± 0.75
- effect on lenticular and retinal pathologic histological alterations (STZ-diabetic rats; [8]): not significant
- effect on retinal histological alterations only (STZ-diabetic rats; [8]): effective
- 24-hour Urinary Protein Loss Mean ± SE (STZ-diabetic Wistar rats [3]; 10 mg/kg daily, 1 month, series 2): 12.06 ± 1.70 mg/24 h
- effect on STZ-diabetes-induced urinary protein loss (STZ-diabetic Wistar rats [3]; Bimoclomol 20 mg/kg, Compound-A 10 mg/kg, (+) enantiomer 5 mg/kg daily): non-significantly reduced
- MNCV (STZ-diabetic Wistar rats [4]; 5 mg/kg p.os once a day): 57.4 ± 0.3 m/s
- MNCV improvement (STZ-diabetic Wistar rats [4]; 5 mg/kg p.os once a day): 79.5%
- SNCV (STZ-diabetic Wistar rats [4]; 5 mg/kg p.os once a day): 58.4 ± 0.3 m/s
- SNCV improvement (STZ-diabetic Wistar rats [4]; 5 mg/kg p.os once a day): 77.6%
- MNCV (STZ-diabetic Wistar rats [4]; 10 mg/kg p.os once a day): 59.2 ± 0.3 m/s
- MNCV improvement (STZ-diabetic Wistar rats [4]; 10 mg/kg p.os once a day): 90.4%
- SNCV (STZ-diabetic Wistar rats [4]; 10 mg/kg p.os once a day): 60.4 ± 0.4 m/s
- SNCV improvement (STZ-diabetic Wistar rats [4]; 10 mg/kg p.os once a day): 89.0%
- MNCV (STZ-diabetic Wistar rats [4]; 20 mg/kg p.os once a day): 59.1 ± 0.3 m/s
- MNCV improvement (STZ-diabetic Wistar rats [4]; 20 mg/kg p.os once a day): 89.8%
- SNCV (STZ-diabetic Wistar rats [4]; 20 mg/kg p.os once a day): 60.1 ± 0.3 m/s
- SNCV improvement (STZ-diabetic Wistar rats [4]; 20 mg/kg p.os once a day): 87.4%
- effect on motor (MNCV) and sensor (SNCV) nerve conduction velocities (STZ-diabetic Wistar rats [4]; bimoclomol 20 mg/kg, Compound A 5 mg/kg once a day): significantly improved
- effect of an increase in the dose over 10 mg/kg on NCV improvement (STZ-diabetic Wistar rats [4]; dose over 10 mg/kg): did not increase the effect
- neuroregeneration of the non-freezed nerves (STZ-diabetic Wistar rats [5]; 10 mg/kg daily for 5 weeks): 44%
- extent of neuroregeneration of the nerve injured by freezing (STZ-diabetic Wistar rats [5]; 10 mg/kg daily for 5 weeks after injury, 5. week, untreated 63%): 73%
- Score values Improvement % (STZ-diabetic Wistar rats [6]; 5 mg/kg daily, 1 month): 74.5%
- Score values Mean ± SE (retinopathy histology) (STZ-diabetic Wistar rats [6]; 5 mg/kg daily, 1 month): 4.028 ± 0.961
- comparison of the two compounds versus diabetic, non-treated animals (STZ-diabetic Wistar rats [6]; Compound A 5 mg/kg vs bimoclomol 20 mg/kg): statistically more effective
- effect on diabetic retinopathy induced pathological histological alterations (STZ-diabetic Wistar rats [6]; Compound A 5 mg/kg, bimoclomol 20 mg/kg daily, 1 month): significantly improved
- effect on fasting blood glucose ([7]; 20 mg/kg p.os daily): significantly reduced
- effect on fasting insulin concentration ([7]; 20 mg/kg p.os daily): significantly reduced
- reduction of fasting insulin concentration ([7]; 20 mg/kg p.os daily): approx. 50%
- Fasting Blood Glucose (mean ± SE) [7, 9]: 8.267 ± 0.436 mmol/L
- Fasting Insulin (mean ± SE) [7, 9]: 11.176 ± 1.955 ng/mL
- effect on AUC of insulin [7, 10]: reduced it significantly, to the same level as the Lean control
- effect on area under the blood glucose curve (AUC) [7, 10]: neither bimoclomol, nor Compound A effected
- Blood Glucose (AUC) (mean ± SE) [7, 11]: 1418.40 ± 194.57
- Insulin (AUC) (mean ± SE) [7, 11]: 790.35 ± 166.08
- effect on peripheral insulin resistance ([7]; summary of Experiment 1): significantly reduces
